Results reported in patent US20150366932A1, “METHODS FOR PRODUCING DIKETOPIPERAZINES AND COMPOSITIONS CONTAINING DIKETOPIPERAZINES” (AMPIO PHARMACEUTICALS, INC., priority 2013, published 2015).
“Also recorded” adds a separate entry of the source. Each block holds one compound with its values, some of them ahead of it.

How the values were obtained:
[1] = tested on: activated PBMC and T-lymphocytes; conditions: activated PBMC and T-lymphocytes in vitro; cited from earlier work
neurokinin-1 receptor = neurokinin-1 receptor (Homo sapiens, UniProt P25103); conditions: cited from earlier work
Sequence of neurokinin-1 receptor (P25103 whole entry): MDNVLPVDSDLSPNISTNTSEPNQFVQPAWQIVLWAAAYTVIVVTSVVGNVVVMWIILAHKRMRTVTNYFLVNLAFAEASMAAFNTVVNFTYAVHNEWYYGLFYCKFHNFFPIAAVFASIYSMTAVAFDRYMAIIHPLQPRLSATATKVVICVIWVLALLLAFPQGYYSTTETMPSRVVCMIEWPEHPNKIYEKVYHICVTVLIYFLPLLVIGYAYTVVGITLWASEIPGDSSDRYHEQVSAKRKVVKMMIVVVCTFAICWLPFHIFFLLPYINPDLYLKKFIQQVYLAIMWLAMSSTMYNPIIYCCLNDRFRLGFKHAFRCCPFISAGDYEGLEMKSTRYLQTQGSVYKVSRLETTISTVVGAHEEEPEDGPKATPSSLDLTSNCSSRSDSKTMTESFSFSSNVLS

[2] = molecular target: T1, dipeptidyl peptidase IV (DPP-IV) (Homo sapiens, UniProt P27487); test: DPP-IV activity assay with chromogenic substrate Gly-Pro-pNA in HSA solutions; type: biochemical; conditions: 1 mM diprotin A pre-incubated 15 minutes at 37° C.; Gly-Pro-pNA 1 mM; 24 hour incubation at 37° C.
T1 construct: the Cohn manufacturing process which isolates other plasma components such as DPP-IV; tissue CSL Behring LLC; Grifols Biologicals Inc; Octapharma USA Inc. (5% HSA products that contain the enzyme); host or cells: human plasma (Cohn fractionation; commercial 5% HSA solution)
T1 sequence (P27487 39-766 limits assumed): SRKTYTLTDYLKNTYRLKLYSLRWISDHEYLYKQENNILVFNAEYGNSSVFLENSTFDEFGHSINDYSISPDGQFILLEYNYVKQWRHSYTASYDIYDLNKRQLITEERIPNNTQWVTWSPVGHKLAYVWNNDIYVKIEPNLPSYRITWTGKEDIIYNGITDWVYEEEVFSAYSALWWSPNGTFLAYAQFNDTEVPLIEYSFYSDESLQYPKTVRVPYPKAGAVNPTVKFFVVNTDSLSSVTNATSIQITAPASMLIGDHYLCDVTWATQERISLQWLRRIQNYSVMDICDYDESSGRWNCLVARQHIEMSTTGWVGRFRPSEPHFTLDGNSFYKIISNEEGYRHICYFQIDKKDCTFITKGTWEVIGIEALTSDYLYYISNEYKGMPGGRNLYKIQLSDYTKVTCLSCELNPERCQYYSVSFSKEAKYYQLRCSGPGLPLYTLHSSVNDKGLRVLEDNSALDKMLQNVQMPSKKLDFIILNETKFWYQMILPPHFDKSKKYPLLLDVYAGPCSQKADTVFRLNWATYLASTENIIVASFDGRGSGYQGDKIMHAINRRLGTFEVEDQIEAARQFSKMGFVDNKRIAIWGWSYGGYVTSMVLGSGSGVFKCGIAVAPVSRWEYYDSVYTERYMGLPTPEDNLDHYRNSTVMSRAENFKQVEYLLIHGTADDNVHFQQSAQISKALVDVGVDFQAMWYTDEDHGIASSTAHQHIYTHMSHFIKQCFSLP
Experimental: DPP-IV activity was assayed by using a chromogenic substrate, Gly-Pro-pNA, as described in E. Nemoto, S. Sugawara, H. Takada, et al., Increase of CD26/dipeptidyl peptidase IV expression on human gingival fibroblasts upon stimulation with cytokines and bacterial components. […] All reactions were carried out in DPP-IV assay buffer (pH 7.6) consisting of 0.1M HEPES, 0.12M NaCl, 5 mM KCl, 8 mM glucose, and 10 mg/ml bovine serum albumin (BSA). 5% commercial HSA, recombinant HSA, or buffer blank (0.9% NaCl) were combined with 1 mM Gly-Pro-pNA (DPP-IV substrate) in assay buffer or assay buffer only (−CON). Incubations were performed at 37° C. or 60° C. for 2-24 hours. For DPP-IV inhibition studies, 1 mM diprotin A in assay buffer was pre-incubated with the HSA solutions for 15 minutes at 37° C. prior to DPP-IV substrate addition. All incubations were read at 405 nm (SpectraMax M2 spectrophotometer, Molecular Devices LLC, Sunnyvale, Calif., USA). Each reading at 405 nm was corrected by subtracting the A405 for the DPP-IV substrate-containing incubation from the corresponding A405 for the −CON incubation for each HSA solution tested.
The amount of pNA produced in μM was calculated based on the pNA molar extinction coefficient in HEPES buffer (see R. Lottenberg, C. M. Jackson, Solution composition dependent variation in extinction coefficients for p-nitroaniline. Biochim Biophys Acta 742 (1983) 558-64). […] Groups were compared using a two tailed students' T-test with a significance level at p<0.05. All data is reported as mean±SD.
Dipeptidyl peptidase IV (DPP-IV) activity was assessed in commercial preparations of human serum albumin (HSA). […] The resulting liberation of a chromogen, pNA, was measured spectrophotometrically at 405 nm.

DPP-IV = molecular target: T2, DPP-IV (Homo sapiens, UniProt P27487); test: DA-DKP formation in 5% commercial HSA heated at 60° C., <5 kDa fraction by LCMS; type: biochemical
T2 construct: the Cohn manufacturing process which isolates other plasma components such as DPP-IV; tissue CSL Behring LLC; Grifols Biologicals Inc; Octapharma USA Inc. (5% HSA products that contain the enzyme); host or cells: human plasma (Cohn fractionation; commercial 5% HSA solution)
T2 sequence (P27487 39-766 limits assumed): as above
Experimental: For the analysis of DA-DKP formation, an aliquot was added to a microcentrifugal filter (Vivaspin 2, MWCO 5,000, Sartorius Stedim Biotech, Goettingen, Germany). Filters were centrifuged at 3,500 rpm for 30 minutes at room temperature. The <5 kDa fraction was collected and transferred to a separate, storage tube for LCMS analysis.
Each <5 kDa fraction & DA-DKP synthetic standard (20-2000 ng/mL) were spiked with 0.01 mM L-Tryptophan-d5 (indole-d5) which was used as an internal standard. 50 μL was injected into a strong anion exchange column (Spherisorb, S5 SAX 250 mm×4.0 mm, Waters, Milford, Mass., USA) connected to high performance liquid chromatography (HPLC, Waters 2795 Separations Module, Milford, Mass., USA) coupled to a mass spectrometer (LCT-TOF, Micromass, UK). […]
The output of the HPLC was split 1:20 (v/v) and injected into the mass spectrometer using negative electrospray ionization (−ESI) with a scan range of 80 to 1000 m/z, cone voltage of 30 eV, source temperature of 100° C., and gas temperature of 300° C. DA-DKP was measured by monitoring [M]=185, which corresponds to DA-DKP minus a single proton (—H+). The straight chain of DA-DKP, Asp-Ala, can also be analyzed with this method by monitoring [M]=203.
The formation of the DKP, DA-DKP, was measured in a commercial HSA solution heated at 60° C. in the presence or absence of a known DPP-IV inhibitor (diprotin A). […]

Compound: CC1NC(=O)C(CC(=O)O)NC1=O (centres unmarked) [DA-DKP, 3-methyl-2,5-diketopiperazine-6-acetic acid]
- Immunosuppressive effects [1]: immunosuppressive effects

Compound: CC(=O)N[C@@H](Cc1c[nH]c2ccccc12)C(=O)O [NAT, N-acetyl-tryptophan]
- Antagonism of the neurokinin-1 receptor (neurokinin-1 receptor): well-known antagonist

- Decrease of amount of DA-DKP produced with inhibitor (DPP-IV; 24 hour period, commercial HSA): ~3 fold
- Increase in DA-DKP production in the presence of the DPP-IV inhibitor (DPP-IV; 24 hours, 5% commercial HSA plus diprotin A): 10%
Compound: Ile-Pro-Ile [diprotin A]
- DPP-IV activity in commercial HSA in the presence of DPP-IV inhibitor [2]: completely suppressed; also recorded: complete suppression of DPP-IV activity; also recorded: abolished
